Reference: patent publication US10221163B2 (priority 2015, dated 2019)
Read-outs that look alike come from different tables or passages of the source.

Legend:
IMP-1 = IMP-1 (Serratia marcescens, UniProt P52699); experiment: biochemical; type: biochemical; settings: fluorescence assay, CCF2-FA substrate, 2 pM enzyme, 2 hours at 25° C.; read-out: IMP-1 IC50
How it was run: (§1)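 IC50 values derive from 4-parameter fits of percent inhibition against inhibitor concentration on semi-log axes. Activity was monitored by fluorescence with the CCF2-FA substrate after a 2-hour, 25° C incubation of compound, enzyme and substrate.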

NDM-1 = NDM-1 (Klebsiella pneumoniae, UniProt C7C422); experiment: biochemical; type: biochemical; settings: fluorescence assay, CCF2-FA substrate, 1 pM enzyme, 2 hours at 25° C.; read-out: NDM-1 IC50
How it was run: as §1

[1] = system: Pseudomonas aeruginosa efflux+ (MB9798), IMP-1; type: cell-based; settings: concentration restoring susceptibility to imipenem at 2 μg/mL in the presence of a class A, C, D serine β-lactamase inhibitor closely related to relebactam
How it was run: (§2)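 Steps: add fixed imipenem and/or ceftazidime (usually CLSI breakpoint) and fixed AmpC-directed class A/C inhibitor to microbroth MIC wells; titrate MBL inhibitor; record concentration regaining susceptibility for each PAO1-derived strain; divide efflux+ by efflux− value.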

VIM-1 = VIM-1 (Pseudomonas aeruginosa (strain ATCC 15692 / DSM 22644 / CIP 104116 / JCM 14847 / LMG 12228 / 1C / PRS 101 / PAO1), UniProt A0A0F7KYQ8); experiment: biochemical; settings: CCF2-FA substrate, 30 pM enzyme, 2 hours at 25° C.
How it was run: as §1

[2] = system: Pseudomonas aeruginosa efflux− (MB9799), IMP-1; type: cell-based; settings: concentration restoring susceptibility to imipenem at 2 μg/mL in the presence of a class A, C, D serine β-lactamase inhibitor closely related to relebactam
How it was run: as §2

[3] = system: Pseudomonas aeruginosa MB9798 vs MB9799; settings: ratio MITC95 PA_9798/MITC95 PA_9799
How it was run: as §2

[4] = system: Escherichia coli expressing NDM-1 (CLB30005, CLB30016); type: cell-based; settings: NDM-1 strain, with imipenem 1 μg/ml, 95% inhibition of growth
How it was run: (§3)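 Clinical isolates (E. coli NDM-1, S. marcescens IMP-1, K. pneumoniae VIM-1) were diluted 1:100 from saline suspension into 1.1×CAMHB and exposed to test compound with imipenem at 1 μg/ml. Plates were incubated at 35° C for 22 hours to 24 hours, and growth was read by absorbance.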

[5] = system: Klebsiella pneumoniae expressing VIM-1 (IHMA599644); type: cell-based; settings: VIM-1 strain IHMA599644, with imipenem 1 μg/ml, 95% inhibition of growth
How it was run: as §3

[6] = system: Serratia marcescens expressing IMP-1 (CL5741); type: cell-based; settings: IMP-1 strain CL5741, with imipenem 1 μg/ml, 95% inhibition of growth
How it was run: as §3

[7] = fluorescence assay, read-out: VIM-1 IC50

Chain of NDM-1 (C7C422 whole entry, looked up, species assumed): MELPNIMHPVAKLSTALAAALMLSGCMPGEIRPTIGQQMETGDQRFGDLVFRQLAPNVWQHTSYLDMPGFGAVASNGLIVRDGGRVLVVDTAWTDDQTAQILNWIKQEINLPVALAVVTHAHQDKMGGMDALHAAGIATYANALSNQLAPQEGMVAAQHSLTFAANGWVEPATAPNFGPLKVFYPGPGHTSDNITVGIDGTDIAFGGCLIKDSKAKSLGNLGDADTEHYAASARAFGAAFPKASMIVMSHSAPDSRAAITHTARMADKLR
Chain of IMP-1 (P52699 whole entry, looked up, species assumed): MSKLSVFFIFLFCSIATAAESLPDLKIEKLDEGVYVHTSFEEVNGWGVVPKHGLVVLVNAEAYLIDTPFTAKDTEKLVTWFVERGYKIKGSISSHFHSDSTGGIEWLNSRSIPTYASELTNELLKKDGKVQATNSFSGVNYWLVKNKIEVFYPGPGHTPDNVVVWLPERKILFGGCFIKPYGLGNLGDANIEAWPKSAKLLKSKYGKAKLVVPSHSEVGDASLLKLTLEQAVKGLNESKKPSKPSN

| Compound | IC50 (IMP-1) [nM] | IC50 (NDM-1) [nM] | P. aeruginosa expressing IMP-1, efflux + (MB9798) MITC95 [1] [µM] | IC50 (VIM-1; [7]) [nM] | P. aeruginosa expressing IMP-1, efflux − (MB9799) MITC95 [2] [µM] | Efflux ratio [3] | Escherichia coli MITC95 [4] [µM] | Klebsiella pneumoniae MITC95 [5] [µM] | Serratia marcescens MITC95 [6] [µM] | IC50 (VIM-1; VIM-1 IC50, fluorescence assay) [nM] |
| --- | --- | --- | --- | --- | --- | --- | --- | --- | --- | --- |
| CNc1ccc(-c2ccc(S(=O)(=O)NCCN)c(S(N)(=O)=O)c2-c2nn[nH]n2)cn1 [Example 243] | 0.312 | 0.276 | 0.7813 | 0.194 | 0.7813 | 1.00 | 0.3906 | 1.563 | 0.3906 | – |
| CN([C@H]1CCNC1)S(=O)(=O)c1ccc(-c2cccc3[nH]c(N)nc23)c(-c2nn[nH]n2)c1S(N)(=O)=O [Example 244, (S)-4-(2-amino-1H-benzo[d]imidazol-7-yl)-N1-methyl-N1-(pyrrolidin-3-yl)-3-(1H-tetrazol-5-yl)benzene-1,2-disulfonamide] | 6.58 | 1.3 | 1.563 | 6.75 | 0.7813 | 2.00 | 0.7813 | 1.563 | 1.563 | – |
| NCCN1CC[C@@H](NS(=O)(=O)c2ccc(-c3cccc4[nH]c(N)nc34)c(-c3nn[nH]n3)c2S(N)(=O)=O)C1 [Example 246, (R)-4-(2-amino-1H-benzo[d]imidazol-4-yl)-N1-(1-(2-aminoethyl)pyrrolidin-3-yl)-3-(2H-tetrazol-5-yl)benzene-1,2-disulfonamide] | 0.853 | 0.0405 | 1.563 | – | 0.7813 | 2.00 | 0.7813 | 1.563 | 1.563 | 0.12 |
| NCC(CO)(CO)NS(=O)(=O)c1ccc(-c2cccc3[nH]c(N)nc23)c(-c2nn[nH]n2)c1S(N)(=O)=O [Example 247, 4-(2-amino-1H-benzo[d]imidazol-4-yl)-N-1-(1-amino-3-hydroxy-2-(hydroxymethyl)propan-2-yl)-3-(2H-tetrazol-5-yl)benzene-1,2-disulfonamide] | 0.504 | 0.0331 | 1.563 | 0.149 | 0.7813 | 2.00 | 0.7813 | 3.125 | 1.563 | – |
| Nc1nc2c(-c3ccc(S(=O)(=O)NC[C@]4(N)CCNC4)c(S(N)(=O)=O)c3-c3nn[nH]n3)cccc2[nH]1 [Example 250, (S)-4-(2-amino-1H-benzo[d]imidazol-4-yl)-N1-((3-aminopyrrolidin-3-yl)methyl)-3-(2H-tetrazol-5-yl)benzene-1,2-disulfonamide] | 0.513 | 0.0335 | 0.7813 | 0.2 | 0.7813 | 1.00 | 0.3906 | 1.563 | 0.7813 | – |
| Nc1nc2c(-c3ccc(S(=O)(=O)NC[C@@]4(N)CCNC4)c(S(N)(=O)=O)c3-c3nn[nH]n3)cccc2[nH]1 [Example 251, (R)-4-(2-amino-1H-benzo[d]imidazol-4-yl)-N1-((3-aminopyrrolidin-3-yl)methyl)-3-(2H-tetrazol-5-yl)benzene-1,2-disulfonamide] | 0.755 | 0.0567 | 0.7813 | 0.194 | 0.7813 | 1.00 | 0.7813 | 1.563 | 0.7813 | – |
| Nc1nc2c(-c3ccc(S(=O)(=O)NC4CNC4)c(S(N)(=O)=O)c3-c3nn[nH]n3)cccc2[nH]1 [Example 252, 4-(2-amino-1H-benzo[d]imidazol-4-yl)-N1-(azetidin-3-yl)-3-(2H-tetrazol-5-yl)benzene-1,2-disulfonamide] | 0.654 | 0.0426 | 0.418 | 0.149 | 0.6133 | 0.68 | 0.4271 | 0.8359 | 0.7383 | – |
| CN(C1CNC1)S(=O)(=O)c1ccc(-c2cccc3[nH]c(N)nc23)c(-c2nn[nH]n2)c1S(N)(=O)=O [Example 255, 4-(2-amino-1H-benzo[d]imidazol-4-yl)-N1-(azetidin-3-yl)-N1-methyl-3-(2H-tetrazol-5-yl)benzene-1,2-disulfonamide] | 2.84 | 0.113 | 1.563 | 0.936 | 0.7813 | 2.00 | 0.3906 | 0.7813 | 0.7813 | – |
| CN1CC(NS(=O)(=O)c2ccc(-c3cccc4[nH]c(N)nc34)c(-c3nn[nH]n3)c2S(N)(=O)=O)C1 [Example 256, 4-(2-amino-1H-benzo[d]imidazol-4-yl)-N1-(1-methylazetidin-3-yl)-3-(2H-tetrazol-5-yl)benzene-1,2-disulfonamide] | 0.609 | 0.0416 | 0.7813 | 0.168 | 0.7813 | 1.00 | 0.3906 | 1.563 | 0.7813 | – |
| CC1(NS(=O)(=O)c2ccc(-c3cccc4[nH]c(N)nc34)c(-c3nn[nH]n3)c2S(N)(=O)=O)CNC1 [Example 257] | 0.642 | 0.033 | 0.7813 | – | 0.7813 | 1.00 | 0.3906 | 0.7813 | 0.7813 | 0.157 |
| NCCCCNS(=O)(=O)c1ccc(-c2cccc3[nH]c(N)nc23)c(-c2nn[nH]n2)c1S(N)(=O)=O [Example 258, 4-(2-amino-1H-benzo[d]imidazol-7-yl)-N1-(4-aminobutyl)-3-(2H-tetrazol-5-yl)benzene-1,2-disulfonamide] | 0.691 | 0.0535 | 0.7813 | 0.156 | 0.7813 | 1.00 | 0.1953 | 1.563 | 0.7813 | – |
| Nc1nc2c(-c3ccc(S(=O)(=O)NC[C@H]4CCNC4)c(S(N)(=O)=O)c3-c3nn[nH]n3)cccc2[nH]1 [Example 259, (S)-4-(2-amino-1H-benzo[d]imidazol-4-yl)-N1-(pyrrolidin-3-ylmethyl)-3-(2H-tetrazol-5-yl)benzene-1,2-disulfonamide] | 0.836 | 0.0555 | 0.7813 | – | 0.7813 | 1.00 | 0.3906 | 1.563 | 0.7813 | 0.229 |
| Nc1nc2c(-c3ccc(S(=O)(=O)NC4CCNCC4)c(S(N)(=O)=O)c3-c3nn[nH]n3)cccc2[nH]1 [Example 260, 4-(2-amino-1H-benzo[d]imidazol-4-yl)-N1-(piperidin-4-yl)-3-(1H-tetrazol-5-yl)benzene-1,2-disulfonamide] | 0.648 | 0.0431 | 0.7813 | 0.151 | 0.7813 | 1.00 | 0.7813 | 1.563 | 1.563 | – |
